Measurements reported in ChEMBL document CHEMBL3886724, “Oxazolidinone compounds and derivatives thereof” (2016).

Biological target: T1, Poly [ADP-ribose] polymerase tankyrase-1 (Homo sapiens, UniProt O95271)
T1 sequence (O95271 whole entry): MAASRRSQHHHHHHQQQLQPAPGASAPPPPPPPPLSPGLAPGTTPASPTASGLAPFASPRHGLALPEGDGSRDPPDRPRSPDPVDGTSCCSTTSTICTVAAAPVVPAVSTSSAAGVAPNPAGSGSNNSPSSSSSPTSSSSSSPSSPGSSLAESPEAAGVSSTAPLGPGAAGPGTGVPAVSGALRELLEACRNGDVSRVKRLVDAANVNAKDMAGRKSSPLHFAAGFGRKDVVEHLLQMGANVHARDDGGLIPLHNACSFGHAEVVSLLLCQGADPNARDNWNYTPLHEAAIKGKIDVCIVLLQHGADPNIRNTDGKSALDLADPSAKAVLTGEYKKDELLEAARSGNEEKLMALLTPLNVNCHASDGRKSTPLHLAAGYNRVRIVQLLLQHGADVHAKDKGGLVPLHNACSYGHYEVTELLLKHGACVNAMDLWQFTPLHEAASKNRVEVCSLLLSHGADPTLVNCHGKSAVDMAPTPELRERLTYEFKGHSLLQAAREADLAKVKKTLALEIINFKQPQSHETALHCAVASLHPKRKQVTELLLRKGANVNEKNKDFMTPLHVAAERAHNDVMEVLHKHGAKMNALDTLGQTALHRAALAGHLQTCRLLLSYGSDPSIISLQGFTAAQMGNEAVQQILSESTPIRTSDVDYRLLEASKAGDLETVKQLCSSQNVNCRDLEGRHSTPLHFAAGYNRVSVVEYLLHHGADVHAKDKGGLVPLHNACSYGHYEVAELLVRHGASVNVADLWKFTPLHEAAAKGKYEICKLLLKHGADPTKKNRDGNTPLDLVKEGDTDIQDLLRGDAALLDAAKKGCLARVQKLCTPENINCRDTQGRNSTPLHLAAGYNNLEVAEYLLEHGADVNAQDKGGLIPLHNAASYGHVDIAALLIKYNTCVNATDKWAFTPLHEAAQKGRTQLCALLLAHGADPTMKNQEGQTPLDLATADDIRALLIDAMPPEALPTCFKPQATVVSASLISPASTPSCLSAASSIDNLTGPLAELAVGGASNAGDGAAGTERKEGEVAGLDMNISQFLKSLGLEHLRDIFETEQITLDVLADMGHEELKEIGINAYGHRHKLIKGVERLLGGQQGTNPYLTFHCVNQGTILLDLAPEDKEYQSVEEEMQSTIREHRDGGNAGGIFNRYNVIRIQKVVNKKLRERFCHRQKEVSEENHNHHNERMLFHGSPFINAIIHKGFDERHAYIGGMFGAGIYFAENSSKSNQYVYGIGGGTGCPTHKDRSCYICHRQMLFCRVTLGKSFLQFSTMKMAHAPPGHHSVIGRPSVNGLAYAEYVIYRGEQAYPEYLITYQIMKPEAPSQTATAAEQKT
Test: Tankyrase Biochemical Assays: The tankyrase 1 biochemical activity of the compounds was assayed in the following assay buffer (50 mM MOPS pH7.5, 100 mM NaCl, […] MgCl2, 0.01% Tween-20, 0.05% BSA, and 1 mM DTT) as follows: […] of 6×HIS-tankyrase 1 (1091-1325) was incubated in the presence of compound (DMSO […] final) in a Perkin Elmer 384 well Proxiplate Plus™ (cat. no. 6008289) with 400 n

Row | IC50 [nM] | SMILES
1 | 5.18 | CC1(C)OC(=O)N([C@H]2CC[C@H](NC(=O)c3csc(-c4ccccc4)n3)CC2)[C@H]1c1ccccc1
2 | 11.4 | CC1(C)OC(=O)N([C@H]2CC[C@H](NC(=O)c3ccnc(-c4ccccc4)n3)CC2)[C@H]1c1ccccc1
3 | 167 | CC1(C)OC(=O)N(c2ccc(-c3cc(-c4ncco4)c[nH]c3=O)cc2)[C@H]1c1ccccc1
